Patent US20210002689A1, “METHOD FOR DETECTING DIFFERENT PROPERTIES IN A MICROORGANISM POPULATION BY OPTICALLY INDUCED DIELECTROPHORETIC FORCE” (Chang Gung University, priority 2019, published 2021)
Values after ≈ are worked out from the molar mass of the structure shown.

Key:
[1] = tested on: Staphylococcus aureus strains; experiment: Vancomycin Etest; type: cell-based; details: 125 clinical Staphylococcus aureus strains selected for PAP-AUC (35 hVISA, 90 VSSA); read-out: minimal inhibition concentration
Experimental: Firstly, the microorganism sample solution 10 is cultured on a blood agar plate. Next, the microorganism sample solution 10 is cultured in 5% carbon dioxide concentration and 37° C. for 16-18 hours. After being cultured, a single strain group is taken from the blood agar plate and is subjected to a matrix-assisted laser desorption ionization time-of-flight (MALDI-TOF) for strains identification. With respect to selecting strains to be identified as Staphylococcus aureus strains, Vancomycin Etest is used in which 125 strains having a minimal inhibition concentration of 2-4 μg/mL are selected for PAP-AUC.

E. coli ATCC® 25922 [2] = experiment: ODEP force analysis after subjecting to ampicillin; type: cell-based, Escherichia coli; details: ampicillin of gradually increased concentration (up to 16 μg/ml), cultured 1.5 hours, FIG. 5
Excerpt: (§1) Referring to FIG. 1 again, after E. coli ATCC® 35218 and E. coli ATCC® 25922 have been activated, they are made into solutions having bacteria for subsequent antibiotics processing. Steps of making solutions having bacteria are described in detail below: selecting a plurality of activated large E. coli strains; dissolving it in normal saline which is a solution of sodium chloride at 0.9% concentration; adjusting its turbidity to 0.5 McFarland to make the microorganism sample solution 10; in each solution having bacteria, adding different amounts of ampicillin antibiotics powder to make a solution having antibiotics concentration of 0 μg/ml, 4 μg/ml, 8 μg/ml or 16 μg/ml, and finally, culturing each solution of different antibiotics concentration in 5% carbon dioxide concentration and 37° C. for 1.5 hours to make the microorganism sample solution to be tested 14.
(§2) Referring to FIGS. 1 to 4 again, an injection pump is used to inject the microorganism sample solution to be tested 14 into the ODEP device 20 via the sample injection hole 221. Electrical properties (e.g., conduction or polarizability) differences are generated because E. coli ATCC® 35218 and E. coli ATCC® 25922 in the microorganism sample solution to be tested 14 have been subjected to ampicillin. […]

E. coli ATCC® 35218 [3] = experiment: ODEP force analysis after subjecting to ampicillin; type: cell-based, Escherichia coli; details: ampicillin 0, 4, 8 or 16 μg/ml, cultured 1.5 hours, FIG. 5
Excerpt: as §1, §2

E. coli ATCC® 35218 [4] = details: cited from earlier work
E. coli ATCC® 25922 [5] = details: cited from earlier work

SMILES	MIC [1]	force generated by light (ODEP force) (E. coli ATCC® 25922 [2])	force generated by light (ODEP force) (E. coli ATCC® 35218 [3])	minimal inhibition concentration (E. coli ATCC® 35218 [4])	minimal inhibition concentration (E. coli ATCC® 25922 [5])
CN[C@H](CC(C)C)C(=O)N[C@H]1C(=O)N[C@@H](CC(N)=O)C(=O)N[C@H]2C(=O)N[C@H]3C(=O)N[C@H](C(=O)N[C@H](C(=O)O)c4cc(O)cc(O)c4-c4cc3ccc4O)[C@H](O)c3ccc(c(Cl)c3)Oc3cc2cc(c3O[C@@H]2O[C@H](CO)[C@@H](O)[C@H](O)[C@H]2O[C@H]2C[C@](C)(N)[C@H](O)[C@H](C)O2)Oc2ccc(cc2Cl)[C@H]1O [Vancomycin]	2 to 4 µg/mL (≈ 1.38 to 2.76 µM)	–	–	–	–
CC1(C)S[C@@H]2[C@H](NC(=O)[C@H](N)c3ccccc3)C(=O)N2[C@H]1C(=O)O [ampicillin]	–	100 μm/sec	220-260 μm/sec	greater than 32 μg/ml	2 to 8 µg/mL
